Like-named read-outs stand apart in the source and are kept apart here.
What was measured:
JAK1 = JAK1 (Homo sapiens (Human), UniProt P23458); assay: LanthaScreen JAK biochemical assay (JAK1)
JAK2 = JAK2 (Homo sapiens (Human), UniProt O60674); assay: LanthaScreen JAK biochemical assay (JAK2); settings: for Ki: read-out: JAK 2 (pKi) (converted)
Tyk2 = Tyk2 (Homo sapiens (Human), UniProt P29597); assay: LanthaScreen JAK biochemical assay (Tyk2); settings: for Ki: read-out: Tyk 2 (pKi) (converted)
[1] = test system: IL-4 induced STAT6 phosphorylation in THP-1 human monocytic cells; assay: Cellular JAK potency assay, THP-1
[2] = test system: IL-13 induced STAT6 phosphorylation in BEAS-2B human lung epithelial cells; assay: AlphaScreen cellular JAK potency assay, BEAS-2B; settings: for BEAS2B pIC50: BEAS-2B cells, IL-13 induced STAT6 phosphorylation; for IC50: Homo sapiens, BEAS-2B, read-out: BEAS2B pIC50 (converted)
[3] = IL-4 induced STAT6 phosphorylation, THP-1 cells
[4] = Homo sapiens, THP-1, read-out: THP-1 IL4 pIC50 (converted)
[5] = read-out: JAK 1 (pKi) (converted)
[6] = THP-1 cells, IL-4 induced STAT6 phosphorylation

Sequence of JAK1 (P23458 whole entry): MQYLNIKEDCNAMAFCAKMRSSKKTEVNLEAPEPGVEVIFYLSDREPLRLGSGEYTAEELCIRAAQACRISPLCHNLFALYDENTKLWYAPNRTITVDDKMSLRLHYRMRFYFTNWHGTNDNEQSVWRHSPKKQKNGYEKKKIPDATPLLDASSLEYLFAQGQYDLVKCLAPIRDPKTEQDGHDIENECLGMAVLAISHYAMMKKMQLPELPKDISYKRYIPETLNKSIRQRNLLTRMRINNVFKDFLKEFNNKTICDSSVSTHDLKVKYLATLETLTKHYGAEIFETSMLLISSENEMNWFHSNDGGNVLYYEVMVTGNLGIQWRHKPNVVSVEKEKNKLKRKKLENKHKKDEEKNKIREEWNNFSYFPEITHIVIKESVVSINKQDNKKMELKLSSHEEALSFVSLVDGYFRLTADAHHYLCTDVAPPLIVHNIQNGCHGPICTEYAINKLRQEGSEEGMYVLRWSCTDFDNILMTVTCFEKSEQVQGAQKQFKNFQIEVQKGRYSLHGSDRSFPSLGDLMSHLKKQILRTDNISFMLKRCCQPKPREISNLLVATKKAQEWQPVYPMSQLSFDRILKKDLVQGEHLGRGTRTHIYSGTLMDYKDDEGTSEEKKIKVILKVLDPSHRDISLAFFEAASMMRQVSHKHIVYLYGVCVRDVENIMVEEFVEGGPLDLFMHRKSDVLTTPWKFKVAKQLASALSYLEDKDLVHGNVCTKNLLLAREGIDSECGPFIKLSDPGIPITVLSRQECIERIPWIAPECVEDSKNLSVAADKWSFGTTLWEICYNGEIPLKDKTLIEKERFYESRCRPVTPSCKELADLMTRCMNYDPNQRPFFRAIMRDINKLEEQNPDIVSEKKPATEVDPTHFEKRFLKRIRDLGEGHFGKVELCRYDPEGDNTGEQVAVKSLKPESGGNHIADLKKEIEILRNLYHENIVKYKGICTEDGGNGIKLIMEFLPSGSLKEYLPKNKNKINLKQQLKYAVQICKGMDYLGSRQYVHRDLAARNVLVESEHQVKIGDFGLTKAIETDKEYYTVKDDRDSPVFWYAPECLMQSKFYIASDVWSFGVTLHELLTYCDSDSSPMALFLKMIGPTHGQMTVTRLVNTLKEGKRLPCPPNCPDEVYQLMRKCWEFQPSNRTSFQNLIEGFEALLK
Sequence of Tyk2 (P29597 whole entry): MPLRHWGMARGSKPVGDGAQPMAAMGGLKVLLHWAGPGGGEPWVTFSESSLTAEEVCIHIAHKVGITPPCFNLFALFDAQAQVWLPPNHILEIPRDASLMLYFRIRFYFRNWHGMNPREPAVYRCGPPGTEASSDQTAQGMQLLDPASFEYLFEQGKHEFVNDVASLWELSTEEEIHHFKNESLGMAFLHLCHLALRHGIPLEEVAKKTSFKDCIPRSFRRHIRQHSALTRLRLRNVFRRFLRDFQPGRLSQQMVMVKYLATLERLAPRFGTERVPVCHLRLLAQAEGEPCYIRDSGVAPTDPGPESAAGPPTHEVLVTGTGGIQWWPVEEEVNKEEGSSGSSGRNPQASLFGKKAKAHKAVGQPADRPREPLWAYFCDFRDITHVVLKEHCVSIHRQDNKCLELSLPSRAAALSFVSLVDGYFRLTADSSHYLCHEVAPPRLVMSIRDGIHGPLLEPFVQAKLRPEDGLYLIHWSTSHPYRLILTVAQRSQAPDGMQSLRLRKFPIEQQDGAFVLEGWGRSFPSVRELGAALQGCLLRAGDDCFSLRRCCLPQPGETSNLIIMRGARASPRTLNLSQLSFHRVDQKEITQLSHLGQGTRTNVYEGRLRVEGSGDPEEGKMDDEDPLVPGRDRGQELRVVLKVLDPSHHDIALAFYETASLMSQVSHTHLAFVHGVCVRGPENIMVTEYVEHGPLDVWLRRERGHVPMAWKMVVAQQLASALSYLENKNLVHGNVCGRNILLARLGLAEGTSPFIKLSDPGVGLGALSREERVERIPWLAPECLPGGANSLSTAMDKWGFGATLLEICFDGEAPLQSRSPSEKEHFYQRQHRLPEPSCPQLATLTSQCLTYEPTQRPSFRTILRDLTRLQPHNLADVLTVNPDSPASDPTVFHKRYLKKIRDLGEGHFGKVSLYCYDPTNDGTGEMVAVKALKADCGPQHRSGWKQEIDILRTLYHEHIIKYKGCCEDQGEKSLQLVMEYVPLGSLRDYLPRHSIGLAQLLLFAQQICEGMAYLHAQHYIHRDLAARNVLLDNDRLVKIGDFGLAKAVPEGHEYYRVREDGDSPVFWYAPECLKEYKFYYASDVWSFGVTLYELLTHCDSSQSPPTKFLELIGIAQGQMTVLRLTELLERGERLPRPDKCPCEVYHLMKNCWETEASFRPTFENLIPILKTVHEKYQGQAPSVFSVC
Sequence of JAK2 (O60674 whole entry): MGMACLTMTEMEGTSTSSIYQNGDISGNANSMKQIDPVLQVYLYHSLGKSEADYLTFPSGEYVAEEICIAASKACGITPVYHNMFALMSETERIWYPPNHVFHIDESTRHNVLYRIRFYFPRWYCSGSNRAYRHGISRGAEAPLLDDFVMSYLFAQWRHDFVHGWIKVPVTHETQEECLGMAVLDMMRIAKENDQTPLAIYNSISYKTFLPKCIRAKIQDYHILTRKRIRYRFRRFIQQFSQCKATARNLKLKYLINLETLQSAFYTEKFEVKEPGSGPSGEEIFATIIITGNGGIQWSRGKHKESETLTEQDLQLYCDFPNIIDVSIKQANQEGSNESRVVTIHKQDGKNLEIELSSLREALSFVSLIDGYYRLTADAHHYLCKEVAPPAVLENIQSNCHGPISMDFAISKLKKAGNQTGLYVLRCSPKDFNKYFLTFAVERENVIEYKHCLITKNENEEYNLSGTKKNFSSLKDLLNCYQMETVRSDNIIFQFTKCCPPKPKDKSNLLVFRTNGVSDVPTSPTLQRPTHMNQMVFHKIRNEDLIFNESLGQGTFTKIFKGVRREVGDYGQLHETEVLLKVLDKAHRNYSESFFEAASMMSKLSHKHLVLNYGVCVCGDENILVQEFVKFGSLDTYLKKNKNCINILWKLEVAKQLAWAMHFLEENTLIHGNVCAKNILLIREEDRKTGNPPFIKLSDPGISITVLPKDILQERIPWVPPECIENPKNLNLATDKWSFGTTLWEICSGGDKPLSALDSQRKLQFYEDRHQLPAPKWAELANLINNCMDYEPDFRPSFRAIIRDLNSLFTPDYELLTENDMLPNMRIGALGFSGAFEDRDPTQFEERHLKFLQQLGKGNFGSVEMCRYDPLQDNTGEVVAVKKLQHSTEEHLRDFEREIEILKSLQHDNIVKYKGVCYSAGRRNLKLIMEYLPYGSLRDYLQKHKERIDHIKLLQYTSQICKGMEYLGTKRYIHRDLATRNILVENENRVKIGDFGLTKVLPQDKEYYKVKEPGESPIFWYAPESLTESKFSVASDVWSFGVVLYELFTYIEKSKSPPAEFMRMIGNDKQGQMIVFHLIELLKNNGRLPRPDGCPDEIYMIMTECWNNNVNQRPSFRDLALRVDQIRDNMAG

Structure (SMILES) | JAK 1 (pKi) (JAK1) | JAK 2 (pKi) (JAK2) | Ki (Tyk2) | IC50 [1, 4] | THP-1 IL4 pIC50 [1, 6] | BEAS2B pIC50 [2] | other results
COCCCN1[C@@H]2CC[C@H]1C[C@H](Nc1nc(Nc3cc(C)[nH]n3)cc3ncccc13)C2 [Example 1-15] | C (C represents a pKi value between 7 and 9 (Ki between 100 nM and 1 nM)) | C (C represents a pKi value between 7 and 9 (Ki between 100 nM and 1 nM)) | – | – | – | – | Tyk 2 (pKi) (Tyk2): C (C represents a pKi value between 7 and 9 (Ki between 100 nM and 1 nM)); THP-1 IL4 pIC50 [1, 3]: C (C represents a pEC50 value<6.7 (EC50>200 nM))
Cc1cc(Nc2cc3ncccc3c(N[C@@H]3C[C@H]4CC[C@@H](C3)N4C3CCCOC3=O)n2)n[nH]1 (some centres unmarked) [Example 1-28] | – | – | 1 to 100 nM | > 200 nM | – | – | Ki (JAK2): 1 to 100 nM
Cc1cc(Nc2cc3ncccc3c(N[C@@H]3C[C@H]4CCC[C@@H](C3)N4CC(N)=O)n2)n[nH]1 [Example 1-37] | – | A (A represents a pKi value≥10 (Ki≤0.1 nM)) | – | – | – | – | Tyk 2 (pKi) (Tyk2): C (C represents a pKi value between 7 and 9 (Ki between 100 nM and 1 nM)); THP-1 IL4 pIC50 [1, 3]: B (B represents a pEC50 value between 6.7 and 7.5 (EC50 between 200 nM and 32 nM))
Cc1cc(Nc2cc3ncccc3c(N[C@@H]3C[C@H]4CC[C@@H](C3)N4C(=O)CF)n2)n[nH]1 [Example 2-2] | – | – | 1 to 100 nM | – | – | – | Ki (JAK1; [5]): 0.1 to 1 nM; Ki (JAK2): 1 to 100 nM
CCOC(=O)N1[C@@H]2CCC[C@H]1C[C@H](Nc1nc(Nc3cc(C)[nH]n3)cc3ncccc13)C2 [Example 3-6] | B (B represents a pKi value between 9 and 10 (Ki between 1 nM and 0.1 nM)) | – | – | – | – | – | Tyk 2 (pKi) (Tyk2): B (B represents a pKi value between 9 and 10 (Ki between 1 nM and 0.1 nM)); THP-1 IL4 pIC50 [1, 3]: A (A represents a pEC50 value≥7.5 (EC50≤32 nM))
Cc1cc(Nc2cc3ncccc3c(N[C@@H]3C[C@H]4CC[C@@H](C3)N4S(C)(=O)=O)n2)n[nH]1 [Example 4-1] | – | – | 0.1 to 1 nM | < 31.6 nM | – | – | Ki (JAK2): 0.1 to 1 nM
CCC1(S(=O)(=O)N2[C@@H]3CC[C@H]2C[C@H](Nc2nc(Nc4cc(C)[nH]n4)cc4ncccc24)C3)CC1 [Example 4-7] | – | – | 0.1 to 1 nM | < 31.6 nM | – | – | Ki (JAK1): 0.1 to 1 nM; Ki (JAK2): 0.1 to 1 nM
Cc1cc(Nc2cc3ncccc3c(N[C@@H]3C[C@H]4CCC[C@@H](C3)N4S(=O)(=O)CC(C)C)n2)n[nH]1 [Example 4-17] | B (B represents a pKi value between 9 and 10 (Ki between 1 nM and 0.1 nM)) | B (B represents a pKi value between 9 and 10 (Ki between 1 nM and 0.1 nM)) | – | – | – | – | Tyk 2 (pKi) (Tyk2): B (B represents a pKi value between 9 and 10 (Ki between 1 nM and 0.1 nM)); THP-1 IL4 pIC50 [1, 3]: A (A represents a pEC50 value≥7.5 (EC50≤32 nM))
Cc1cc(Nc2cc3nc(CO)ccc3c(N[C@@H]3C[C@H]4CC[C@@H](C3)N4S(C)(=O)=O)n2)n[nH]1 [Example 5-12] | – | – | 0.1 to 1 nM | 31.6 to 200 nM | – | – | –
Cc1cc(Nc2cc3nc(CN4CCOCC4)ccc3c(N[C@@H]3C[C@H]4CCC[C@@H](C3)N4CCC#N)n2)n[nH]1 [Example 5-26] | A (A represents a pKi value≥10 (Ki≤0.1 nM)) | A (A represents a pKi value≥10 (Ki≤0.1 nM)) | – | – | – | – | Tyk 2 (pKi) (Tyk2): B (B represents a pKi value between 9 and 10 (Ki between 1 nM and 0.1 nM)); THP-1 IL4 pIC50 [1, 3]: A (A represents a pEC50 value≥7.5 (EC50≤32 nM))
Cc1cc(Nc2cc3nc(CN4CCN(C)CC4)ccc3c(N[C@@H]3C[C@H]4CC[C@@H](C3)N4S(=O)(=O)N3CCC3)n2)n[nH]1 [Example 5-39] | – | – | 0.1 to 1 nM | 31.6 to 200 nM | – | – | Ki (JAK1): 0.1 to 1 nM; Ki (JAK2): 0.1 to 1 nM
Cc1cc(Nc2cc3nc(CS(C)(=O)=O)ccc3c(N[C@@H]3C[C@H]4CC[C@@H](C3)N4CCF)n2)n[nH]1 [Example 5-41] | B (B represents a pKi value between 9 and 10 (Ki between 1 nM and 0.1 nM)) | B (B represents a pKi value between 9 and 10 (Ki between 1 nM and 0.1 nM)) | – | – | – | – | Tyk 2 (pKi) (Tyk2): B (B represents a pKi value between 9 and 10 (Ki between 1 nM and 0.1 nM)); THP-1 IL4 pIC50 [1, 3]: C (C represents a pEC50 value<6.7 (EC50>200 nM))
Cc1cnc2cc(Nc3cc(C)[nH]n3)nc(N[C@@H]3C[C@H]4CC[C@@H](C3)N4Cc3ccncc3)c2c1 [Example 6-2] | B (B represents a pKi value between 9 and 10 (Ki between 1 nM and 0.1 nM)) | B (B represents a pKi value between 9 and 10 (Ki between 1 nM and 0.1 nM)) | – | – | A (A represents a pEC50 value≥7.5 (EC50≤32 nM)) | B (B represents a pEC50 value between 6.7 and 7.5 (EC50 between 200 nM and 32 nM)) | –
COc1cnc2cc(Nc3cc(C)[nH]n3)nc(N[C@@H]3C[C@H]4CC[C@@H](C3)N4CCC(F)(F)F)c2c1 [Example 6-15] | B (B represents a pKi value between 9 and 10 (Ki between 1 nM and 0.1 nM)) | B (B represents a pKi value between 9 and 10 (Ki between 1 nM and 0.1 nM)) | – | – | A (A represents a pEC50 value≥7.5 (EC50≤32 nM)) | A (A represents a pEC50 value≥7.5 (EC50≤32 nM)) | –
COc1cnc2cc(Nc3cc(C)[nH]n3)nc(N[C@@H]3C[C@H]4CC[C@@H](C3)N4Cc3ccncc3)c2c1 [Example 6-24] | B (B represents a pKi value between 9 and 10 (Ki between 1 nM and 0.1 nM)) | B (B represents a pKi value between 9 and 10 (Ki between 1 nM and 0.1 nM)) | – | – | B (B represents a pEC50 value between 6.7 and 7.5 (EC50 between 200 nM and 32 nM)) | B (B represents a pEC50 value between 6.7 and 7.5 (EC50 between 200 nM and 32 nM)) | –
COc1cnc2cc(Nc3cc(C)[nH]n3)nc(N[C@@H]3C[C@H]4CCC[C@@H](C3)N4Cc3ccncc3)c2c1 [Example 6-28] | B (B represents a pKi value between 9 and 10 (Ki between 1 nM and 0.1 nM)) | B (B represents a pKi value between 9 and 10 (Ki between 1 nM and 0.1 nM)) | – | – | A (A represents a pEC50 value≥7.5 (EC50≤32 nM)) | A (A represents a pEC50 value≥7.5 (EC50≤32 nM)) | –
COC(=O)c1cnc2cc(Nc3cc(C)[nH]n3)nc(N[C@@H]3C[C@H]4CC[C@@H](C3)N4S(C)(=O)=O)c2c1 [Example 6-33] | – | – | 0.1 to 1 nM | 31.6 to 200 nM | – | – | –
CCS(=O)(=O)N1[C@@H]2CC[C@H]1C[C@H](Nc1nc(Nc3cc(C)[nH]n3)cc3ncc(C(=O)OC)cc13)C2 [Example 6-34] | – | – | 0.1 to 1 nM | < 31.6 nM | – | – | –
COC(=O)c1cnc2cc(Nc3cc(C)[nH]n3)nc(N[C@@H]3C[C@H]4CC[C@@H](C3)N4C3CCOC3=O)c2c1 (some centres unmarked) [Example 6-35] | – | – | 0.1 to 1 nM | 31.6 to 200 nM | – | – | Ki (JAK1; [5]): 0.1 to 1 nM
CCS(=O)(=O)N1[C@@H]2CC[C@H]1C[C@H](Nc1nc(Nc3cc(C)[nH]n3)cc3nccc(OC)c13)C2 [Example 7-2] | – | – | – | < 31.6 nM | – | – | Ki (JAK1; [5]): 0.1 to 1 nM; Ki (JAK2): 0.1 to 1 nM; IC50 [2]: < 31.6 nM
COc1ccnc2cc(Nc3cc(C)[nH]n3)nc(N[C@@H]3C[C@H]4CC[C@@H](C3)N4CCC#N)c12 [Example 7-6] | B (B represents a pKi value between 9 and 10 (Ki between 1 nM and 0.1 nM)) | B (B represents a pKi value between 9 and 10 (Ki between 1 nM and 0.1 nM)) | – | – | A (A represents a pEC50 value≥7.5 (EC50≤32 nM)) | B (B represents a pEC50 value between 6.7 and 7.5 (EC50 between 200 nM and 32 nM)) | –
COc1ccnc2cc(Nc3cc(C)[nH]n3)nc(N[C@@H]3C[C@H]4CC[C@@H](C3)N4CC(F)(F)F)c12 [Example 7-9] | – | – | – | < 31.6 nM | – | – | Ki (JAK1): 0.1 to 1 nM; Ki (JAK2): 0.1 to 1 nM; IC50 [2]: < 31.6 nM
COc1ccnc2cc(Nc3cc(C)[nH]n3)nc(N[C@@H]3C[C@H]4CC[C@@H](C3)N4C3(CC#N)COC3)c12 [Example 7-10] | – | – | 0.1 to 1 nM | – | – | – | Ki (JAK1; [5]): 0.1 to 1 nM; Ki (JAK2): 0.1 to 1 nM
Cc1cc(Nc2nc(N[C@@H]3C[C@H]4CC[C@@H](C3)N4Cc3ccncc3)c3cccnc3c2F)n[nH]1 [Example 8-6] | B (B represents a pKi value between 9 and 10 (Ki between 1 nM and 0.1 nM)) | B (B represents a pKi value between 9 and 10 (Ki between 1 nM and 0.1 nM)) | – | – | B (B represents a pEC50 value between 6.7 and 7.5 (EC50 between 200 nM and 32 nM)) | B (B represents a pEC50 value between 6.7 and 7.5 (EC50 between 200 nM and 32 nM)) | –
Cc1cc(Nc2nc(N[C@@H]3C[C@H]4CCC[C@@H](C3)N4S(C)(=O)=O)c3cccnc3c2F)n[nH]1 [Example 8-10] | A (A represents a pKi value≥10 (Ki≤0.1 nM)) | A (A represents a pKi value≥10 (Ki≤0.1 nM)) | – | – | A (A represents a pEC50 value≥7.5 (EC50≤32 nM)) | A (A represents a pEC50 value≥7.5 (EC50≤32 nM)) | –
Cc1cc(Nc2nc(N[C@@H]3C[C@H]4CCC[C@@H](C3)N4S(=O)(=O)c3cccnc3)c3cccnc3c2F)n[nH]1 [Example 8-12] | B (B represents a pKi value between 9 and 10 (Ki between 1 nM and 0.1 nM)) | B (B represents a pKi value between 9 and 10 (Ki between 1 nM and 0.1 nM)) | – | – | A (A represents a pEC50 value≥7.5 (EC50≤32 nM)) | A (A represents a pEC50 value≥7.5 (EC50≤32 nM)) | –
Cc1cnc2c(F)c(Nc3cc(C)[nH]n3)nc(N[C@@H]3C[C@H]4CCC[C@@H](C3)N4S(C)(=O)=O)c2c1 [Example 8-22] | B (B represents a pKi value between 9 and 10 (Ki between 1 nM and 0.1 nM)) | B (B represents a pKi value between 9 and 10 (Ki between 1 nM and 0.1 nM)) | – | – | B (B represents a pEC50 value between 6.7 and 7.5 (EC50 between 200 nM and 32 nM)) | B (B represents a pEC50 value between 6.7 and 7.5 (EC50 between 200 nM and 32 nM)) | –

Source: patent US10072026B2, “Crystalline form of 3-((1R,3s,5S)-3-((7-((5-methyl-1H-pyrazol-3-yl)amino)-1,6-naphthyridin-5-yl)amino)-8-azabicyclo[3.2.1]octan-8-yl)propanenitrile” (priority 2015, dated 2018)
